In test [1] the test system is MCF7. Description: Induction of morphological changes in human MCF7 cells at 40 uM after 48 hrs by DAPI staining based inverted light microscopic method. The test is classed as functional, cell-based.
The test system of test [2] is MCF7. Description: Induction of morphological changes in human MCF7 cells at 40 uM after 48 hrs by DAPI staining based fluorescence microscopic method. The test is classed as functional, cell-based.

Calls of active or inactive are those of the source. The calls are words filed in the database; no cut-off is given here.

For `COc1ccc(C(CC(=O)c2cc3ccccc3oc2=O)NC(=O)CCn2cc(COc3ccc(-c4c(C#N)c(N)nc(Sc5ccccc5)c4C#N)cc3OC)nn2)cc1` (configuration not stated), the outcome in the test on MCF7 [1] and in the test on MCF7 [2] was Active.

The record behind these values is ChEMBL document CHEMBL4000228, “Synthesis of bioactive and fluorescent pyridine-triazole-coumarin peptidomimetics through sequential click-multicomponent reactions” (Bioorg Med Chem Lett, 2017).
